Measurements reported in patent US20110296540A1, “ASSAY FOR SCREENING ANTIDEPRESSANTS” (priority 2008, published 2011).
Where two headings read alike, the source gives them in different places.

Key:
β-arrestin 2 = tested on: β-arrestin 2
Procedure: (§1) Tissue preparation: Animals were sacrificed by cervical dislocation. Selected brain regions were dissected and placed in tubes containing RNAlater (Ambion), incubated at 4 degrees C. overnight and stored at −80 degrees C. until processing.
(§2) Brain regions (10-20 mg) were homogenized for 20 sec at medium speed in 1.25 ml lysis/denaturation buffer (Ambion) using an Autogizer™ (Tomtec). Total RNA was isolated from 100-300 ul aliquots of the homogenate using the RNAqueous™ 96 automated kit (Ambion) according to the manufacturer's protocol. A second DNase I digestion was incorporated after elution of the RNA from the Ambion filter plate to remove residual genomic DNA. Digestion was performed for 1 hr at room temperature using DNase I™ (Invitrogen) and the buffer supplied with the enzyme. After inactivation of the DNase with EDTA and heat, the RNA was desalted with a Multiscreen™ filter plate (Millipore) and stored at −80° C. Conversion of total RNA into first strand cDNA was accomplished with Superscript II™ enzyme (Invitrogen) followed by desalting over a Multiscreen plate. Approximately 1 ug of total RNA was used for each cDNA reaction. The yield of cDNA was determined using Quant-iT Oligreen™ reagent (Invitrogen). Prior to the Oligreen assay, total RNA carried over from the cDNA reaction was hydrolyzed with NaOH and heat, followed by neutralization with Tris buffer. This treatment eliminates any contribution of the RNA to the Oligreen signal. The unknown cDNA samples were compared to a standard curve derived using a 18mer oligonucleotide. Replica cDNA plates containing 3 ng of cDNA per well were prepared using an Evolution P3™ workstation (PerkinElmer). Each animal in a given experiment was represented by one well on each plate and each plate always contained the control and treatment groups.
(§3) Quantitative PCR (qPCR) was carried out in 25 ul reactions using Full Velocity™ enzyme (Stratagene). Plates were run on either a Stratagene MX3000P™ or an Applied Biosystems 7900 HT instrument. The cycling parameters were set based on recommendations from the enzyme manufacturer. One gene expression profile was analyzed per PCR plate and duplicate plates were run for each gene. Two housekeeping genes, cyclophilin and GAPDH, were included in the gene list and were used to normalize the expression results obtained from the other genes of interest (see data analysis section). The sequences of the primers and probes for each gene are listed in supplemental table 1. Duplicate cycle thresholds (Ct values) were obtained for each gene/region and averaged. […] After converting delta Ct values to percentage, the mean and SEM of each animal group (controls and experimental) was calculated.

Giα2 = conditions: hypothalamus
Procedure: as §1, §2, §3

β-arrestin 1 = conditions: hypothalamus
Procedure: as §1, §2, §3

[1] = tested on: mineralocorticoid receptor
Procedure: as §1, §2
(§4) Quantitative PCR (qPCR) was carried out in 25 ul reactions using Full Velocity™ enzyme (Stratagene). Plates were run on either a Stratagene MX3000P™ or an Applied Biosystems 7900 HT instrument. The cycling parameters were set based on recommendations from the enzyme manufacturer. One gene expression profile was analyzed per PCR plate and duplicate plates were run for each gene. Two housekeeping genes, cyclophilin and GAPDH, were included in the gene list and were used to normalize the expression results obtained from the other genes of interest (see data analysis section). The sequences of the primers and probes for each gene are listed in supplemental table 1. Duplicate cycle thresholds (Ct values) were obtained for each gene/region and averaged. The values for cyclophilin and GAPDH were combined and used to normalize the expression values from the other genes by employing the delta Ct method. After converting delta Ct values to percentage, the mean and SEM of each animal group (controls and experimental) was calculated.
(§5) Tissue preparation, RNA extraction, DNA preparation and qPCR analysis were described in the materials and methods section. Data analysis and statistics Results from data analyses were expressed as mean±SEM. Data were analyzed using StatView 5.0 software (SAS Institute, Cary, N.C.).

Creb-1 gene = tested on: Creb-1 gene
Procedure: as §1, §2, §4, §5

[2] = tested on: β-arrestin 2 knock out mice (S129/Sv×C57BL/6); test: Open Field paradigm in β-arrestin 2 knock out mice and littermates; format: in vivo
Excerpt: Adult male C57BL/6Ntac mice were purchased from Taconic Farms (Germantown, N.Y., USA; Lille Skensved, Denmark). Male heterozygous β-arrestin 2+/− and heterozygous female mutant β-arrestin+/− mice (age 4-6 months, 25-30 g body weight) were bred on a mixed S129/Sv×C57BL/6 genetic background raised at the animal facility of Columbia University (New York, USA). […] Food and water were provided ad libitum. Behavioral testing occurred during the light phase between 0700 and 1900 for the OF, NSF and FST, splash test.
For all the studies, control mice received β-CD.
Motor activity was quantified in four Plexiglas open field boxes 43 times 43 cm2 (MED Associates, Georgia, Vt.). Two sets of 16 pulse-modulated infrared photobeams were placed on opposite walls 2.5-cm apart to record x-y ambulatory movements. Activity chambers were computer interfaced for data sampling at 100-ms resolution. The computer defined grid lines that divided each Open Field into center and surround regions, with each of four lines being 11 cm from each wall. Dependent measures in the center were the total time and the number of entries over a 30-min period of test. The whole session was also divided in 5 periods to analyze the time spent in the center every 5 min. The overall motor activity was quantified as the total distance traveled (cm) or distance traveled in the center divided by total distance traveled.

[3] = tested on: proliferating neural progenitors; test: BrdU labelling of cell proliferation in the dentate gyrus; format: in vivo, mice
Procedure: Immunohistochemistry and confocal imaging. Mice were anesthetized with ketamine/xylazine (100 and 7 mg/kg, respectively) and transcardially perfused (cold saline, followed by 4% cold paraformaldehyde in PBS). […] Immunohistochemistry was performed in the following steps: 2 h incubation in 1:1 formamide/2×SSC at 65° C., 5 min rinse in 2×SSC, 30 min incubation in 2N HCl at 37° C., and 10 min rinse in 0.1M boric acid, pH 8.5, 2 h incubation in 0.1M PBS with 0.3% Triton X-100, and 5% normal donkey serum. Sections were then incubated overnight at 4° C. in primary antibodies for doublecortin (goat; 1:500; Santa Cruz Biotechnology, Santa Cruz, Calif.), bromodeoxyuridine (BrdU; rat; 1:100; Serotec, Oxford, UK), and neuronal-specific nuclear protein (NeuN) (mouse; 1:500; Chemicon, Temecula, Calif.). Biotinylated or fluorescent secondary antibodies were used. All secondary antibodies were purchased from Jackson ImmunoResearch (West Grove, Pa.). DCX staining for Sholl analysis was done as follows: sections were rinsed in PBS, treated with 1% H2O2 in 1:1 PBS and methanol for 15 min to quench endogenous peroxidase activity (and to enhance dendritic staining), incubated in 10% normal donkey serum and 0.3% Triton X-100 for 30 min, and then incubated overnight at 4° C. in primary antibody for doublecortin. […] Stereological procedure was used to quantify labeled cells (Malberg et al., 2000 ? ). […]

Compound: CNCCC(Oc1ccc(C(F)(F)F)cc1)c1ccccc1 (centres unmarked) [fluoxetine]
- β-arrestin 2 levels (β-arrestin 2; hippocampus, fluoxetine): opposite effect
- β-arrestin 2 expression (β-arrestin 2; hypothalamus, fluoxetine in corticosterone-treated mice): reversed
- Giα2 expression (Giα2): totally reversed
- β-arrestin 1 expression (β-arrestin 1): totally reversed
- mineralocorticoid receptor expression ([1]; amygdala): unchanged
- mineralocorticoid receptor expression ([1]; hippocampus): unchanged
- mineralocorticoid receptor expression ([1]; hypothalamus): unchanged
- Creb-1 gene expression (Creb-1 gene; amygdala): unchanged
- Creb-1 gene expression (Creb-1 gene; hippocampus): unchanged
- Creb-1 gene expression (Creb-1 gene; hypothalamus): unchanged
- total number of entries in the center (Open Field) ([2]; wild-type animals, 4 weeks fluoxetine): increased
- time spent in the center (Open Field) ([2]; wild-type animals, 4 weeks fluoxetine 18 mg/kg/day): increased
- effect of fluoxetine on time spent in the center (Open Field) ([2]; β-arrestin 2 knock out mice): abolished
- total ambulatory distance (Open Field) ([2]; β-arrestin 2 knock out mice): absence of effects
- total number of entries in the center (Open Field) ([2]; β-arrestin 2 knock out mice): absence of effects
- number of BrdU cells in the granule cell layer (GCL) ([3]; chronic (28 d) fluoxetine 18 mg/kg/d vs vehicle): increased
- number of BrdU+ cells ([3]; sham animals of the irradiation experiment, 28 d of fluoxetine): increase
